Source: the NIST ThermoML archive (doi:10.1007/s10765-011-1087-7)

Key:
[1] = refractive index (Na D-line) (dimensionless); xn = mol fraction of the nth substance listed; details: 101 kPa, Liquid
[2] = xn = mol fraction of the nth substance listed; details: 101 kPa, Liquid; for speed of sound: Pulse-echo method

CCCCCCC(C)O (stereo not drawn) [2-octanol] + Clc1ccccc1Cl
Details	mass density, [2] [kg/m3]	refractive index, [1]	speed of sound, [2] [m/s]	viscosity, [2] [mPa·s]
298.15 K, x2 = 0.0721	841.72	1.4308	1302	5.353
298.15 K, x2 = 0.1124	856.33	1.4352	1299.7	4.742
298.15 K, x2 = 0.1868	884.26	1.443	1295.1	3.839
298.15 K, x2 = 0.2615	913.56	1.4507	1291	3.163
298.15 K, x2 = 0.3223	938.42	1.4569	1287.8	2.721
298.15 K, x2 = 0.3758	961.09	1.4624	1285.1	2.414
298.15 K, x2 = 0.4495	993.6	1.4698	1281.8	2.086
298.15 K, x2 = 0.512	1022.45	1.4763	1279.1	1.873
298.15 K, x2 = 0.5923	1061.35	1.4848	1276.1	1.668
298.15 K, x2 = 0.6557	1093.66	1.492	1274.5	1.551
298.15 K, x2 = 0.7312	1134.18	1.5014	1273.2	1.406
298.15 K, x2 = 0.797	1171.44	1.5103	1273	1.293
298.15 K, x2 = 0.8672	1213.47	1.521	1274.4	1.283
298.15 K, x2 = 0.9481	1265.11	1.5353	1277.6	1.308
303.15 K, x2 = 0.0721	837.79	1.4293	1283.9	4.223
303.15 K, x2 = 0.1124	852.34	1.4336	1281.6	3.749
303.15 K, x2 = 0.1868	880.15	1.4416	1277.6	3.115
303.15 K, x2 = 0.2615	909.35	1.4492	1273.5	2.648
303.15 K, x2 = 0.3223	934.11	1.4552	1270.5	2.342
303.15 K, x2 = 0.3758	956.68	1.4604	1267.9	2.15
303.15 K, x2 = 0.4495	989.05	1.4678	1264.9	1.942
303.15 K, x2 = 0.512	1017.76	1.4741	1262.2	1.772
303.15 K, x2 = 0.5923	1056.48	1.4828	1259.6	1.613
303.15 K, x2 = 0.6557	1088.63	1.4902	1258	1.473
303.15 K, x2 = 0.7312	1128.95	1.4997	1257	1.34
303.15 K, x2 = 0.797	1166.05	1.509	1256.7	1.253
303.15 K, x2 = 0.8672	1207.93	1.52	1257.9	1.201
303.15 K, x2 = 0.9481	1259.5	1.5342	1261.6	1.223
308.15 K, x2 = 0.0721	833.8	1.4274	1266.6	3.524
308.15 K, x2 = 0.1124	848.27	1.4319	1264	3.227
308.15 K, x2 = 0.1868	875.95	1.4399	1260.1	2.763
308.15 K, x2 = 0.2615	905.03	1.4476	1256.2	2.38
308.15 K, x2 = 0.3223	929.69	1.4534	1253.3	2.121
308.15 K, x2 = 0.3758	952.17	1.4587	1250.8	1.933
308.15 K, x2 = 0.4495	984.42	1.4658	1247.6	1.7
308.15 K, x2 = 0.512	1013.02	1.4718	1245.4	1.532
308.15 K, x2 = 0.5923	1051.57	1.48	1242.9	1.362
308.15 K, x2 = 0.6557	1083.59	1.4873	1241.5	1.243
308.15 K, x2 = 0.7312	1123.75	1.4967	1240.5	1.157
308.15 K, x2 = 0.797	1160.72	1.5059	1240.4	1.132
308.15 K, x2 = 0.8672	1202.46	1.5168	1241.5	1.133
308.15 K, x2 = 0.9481	1253.92	1.531	1243.9	1.14
